Where two headings read alike, the source gives them in different places.
Tests used:
Assay type in all cases: cell-based
U373 glioblastoma cells = assay: MTT cytotoxicity assay, U373 glioblastoma (brain tumor) cells; conditions: Homo sapiens, U373 MG, 24-36 hours at 37° C.
Method: (§1) Cytotoxicity of various compounds against tumor cells was performed using the MTT (3-[4,5-dimethylthiazol-2-yl]-2,5-diphenyl tetrazolium bromide) assay (Boehringer Mannheim Corp., Indianapolis, Ind.). Unless otherwise specified, all cell lines were obtained from the American Type Culture Collection (ATCC). Briefly, exponentially growing cells were seeded into a 96-well plate at a density of 2.5×10^4 cells/well and incubated for 36 hours at 37° C. prior to drug exposure. On the day of treatment, culture medium was carefully aspirated from the wells and replaced with fresh medium containing WHI-P239 at concentrations ranging from 0.1 to 250 μM. Triplicate wells were used for each treatment.
(§2) Human leukemic cell lines (NALM-6, MOLT-3), human breast tumor cells (BT20), prostate cancer cells (PC3), and glioblastoma cells (U373) were obtained from the American Type Culture Collection and maintained as a continuous cell line in Dulbecco's modified Eagles's medium supplemented with 10% fetal bovine serum and antibiotics.
(§3) The cells were incubated with the various compounds for 24-36 hours at 37° C. in a humidified 5% CO2 atmosphere. To each well, 10 μl of MTT (0.5 mg/ml final concentration) was added and the plates were incubated at 37° C. for 4 hours to allow MTT to form formazan crystals by reacting with metabolically active cells. The formazan crystals were solubilized overnight at 37° C. in a solution containing 10% SDS in 0.01 M HCl. The absorbence of each well was measured in a microplate reader (Labsystems) at 540 nm and a reference wavelength of […]. To translate the OD540 values into the number of live cells in each well, the OD540 values were compared to those on standard OD540 -versus-cell number curves generated for each cell line. The percent survival was calculated using the formula shown below. [formula]

[1] = test system: BT-20 breast cancer cells; assay: MTT cytotoxicity assay, BT-20 breast cancer cells; conditions: Homo sapiens, 24-36 hours at 37° C.
Method: as §1, §2, §3

NALM-6 leukemia cells = assay: MTT cytotoxicity assay, NALM-6 leukemia cells; conditions: Homo sapiens, 24-36 hours at 37° C.
Method: as §1, §2, §3

[2] = test system: PC-3 prostate cancer cells; assay: MTT cytotoxicity assay, PC-3 prostate cancer cells; conditions: 24-36 hours at 37° C.
Method: as §1, §2, §3

SMILES	IC50 (U373 glioblastoma cells) [µM]	IC50 [1] [µM]	IC50 (NALM-6 leukemia cells; read-out: IC50 NALM-6 Leukemia) [µM]	IC50 [2] [µM]	IC50 (NALM-6 leukemia cells; leukemia cells, read-out: IC50 antileukemic potency (unit printed EM)) [µM]
Oc1c(Br)cc(Nc2nc(Nc3cc(Br)c(O)c(Br)c3)nc(Nc3cc(Br)c(O)c(Br)c3)n2)cc1Br [WHI-P200, 2,4,6-Tri(3',5'-dibromo-4'-hydroxylphenyl)-amino-1,3,5-triazine]	> 250	27.1	10.1	64.5	
Oc1cccc(Nc2nc(Nc3cccc(O)c3)nc(Nc3cccc(O)c3)n2)c1 [WHI-P233, 2,4,6-Tri(3'-hydroxylphenyl)-amino-1,3,5-triazine]	104	66.1	5.1	45.1	5.1
Oc1ccccc1Nc1nc(Nc2ccccc2O)nc(Nc2ccccc2O)n1 [WHI-P205, 2,4,6-Tri(2'-hydroxylphenyl)-amino-1,3,5-triazine]	224	108	21.5	102	
Brc1cccc(Nc2nc(Nc3cccc(Br)c3)nc(Nc3cccc(Br)c3)n2)c1 [WHI-P206, 2,4,6-Tri(3'-bromophenyl)-amino-1,3,5-triazine]	> 250	> 250	> 250	> 250	
Oc1c(Cl)cc(Nc2nc(Nc3cc(Cl)c(O)c(Cl)c3)nc(Nc3cc(Cl)c(O)c(Cl)c3)n2)cc1Cl [WHI-P239, 2,4,6-Tri(3',5'-dichloro-4'-hydroxylphenyl)-amino-1,3,5-triazine]	155	13.2	9.8	31.5	
Oc1ccc(Nc2nc(Nc3ccc(O)cc3)nc(Nc3ccc(O)cc3)n2)cc1 [WHI-P199, 2,4,6-Tri(4'-hydroxylphenyl)-amino-1,3,5-triazine]	> 250	240	> 250	221	

Reference: patent US6262053A, “Melamine derivatives as potent anti-cancer agents” (Parker Hughes Institute, priority 1999, dated 2001)
